Laboratory results from ChEMBL document CHEMBL1201862, “PubChem BioAssay data set” (2004).
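Where inhibition never reached the appropriate level, the endpoint shown equals the highest concentration tested. Otherwise, values were interpolated linearly from a five-concentration, 48-hour dose response in 96-well plates. At the GI50, growth is halved.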 The source made the active and inactive calls. Rule as the data show it: active = GI50 up to about 1.1 µM and inactive = higher.

How the values were obtained:
Experiment in all cases: NCI anticancer screen, dose series, 48 h
786-0 = tested on: 786-0
A498 = tested on: A498
A549 = tested on: A549
ACHN = tested on: ACHN
BT-549 = tested on: BT-549
CAKI-1 = tested on: CAKI-1
COLO 205 = tested on: COLO 205
DU-145 = tested on: DU-145
EKVX = tested on: EKVX
HCC 2998 = tested on: HCC 2998
HCT-116 = tested on: HCT-116
HCT-15 = tested on: HCT-15
HL-60 = tested on: HL-60
HOP-62 = tested on: HOP-62
HOP-92 = tested on: HOP-92
HT-29 = tested on: HT-29
Hs-578T = tested on: Hs-578T
IGROV-1 = tested on: IGROV-1
K562 = tested on: K562
KM12 = tested on: KM12
LOX IMVI = tested on: LOX IMVI
M14 = tested on: M14
MCF7 = tested on: MCF7
MDA-MB-231 = tested on: MDA-MB-231
MDA-MB-435 = tested on: MDA-MB-435
MDA-N = tested on: MDA-N
MOLT-4 = tested on: MOLT-4
NCI-H226 = tested on: NCI-H226
NCI-H23 = tested on: NCI-H23
NCI-H460 = tested on: NCI-H460
NCI/ADR-RES = tested on: NCI/ADR-RES
OVCAR-3 = tested on: OVCAR-3
OVCAR-4 = tested on: OVCAR-4
OVCAR-5 = tested on: OVCAR-5
OVCAR-8 = tested on: OVCAR-8
PC-3 = tested on: PC-3
RPMI-8226 = tested on: RPMI-8226
RXF 393 = tested on: RXF 393
SF-268 = tested on: SF-268
SF-295 = tested on: SF-295
SF-539 = tested on: SF-539
SK-MEL-28 = tested on: SK-MEL-28
SK-MEL-2 = tested on: SK-MEL-2
SK-MEL-5 = tested on: SK-MEL-5
SK-OV-3 = tested on: SK-OV-3
SN12C = tested on: SN12C
SNB-19 = tested on: SNB-19
SNB-75 = tested on: SNB-75
SR = tested on: SR
SW-620 = tested on: SW-620
T47D = tested on: T47D
TK-10 = tested on: TK-10
U-251 = tested on: U-251
UACC-257 = tested on: UACC-257
UACC-62 = tested on: UACC-62
UO-31 = tested on: UO-31
CCRF-CEM = tested on: CCRF-CEM
Malme-3M = tested on: Malme-3M
NCI-H522 = tested on: NCI-H522

Cc1ccc(S(=O)(=O)n2cc(-c3cnc(N)c(Br)n3)c3ccccc32)cc1
GI50 (786-0): 2.33 µM (inactive)
GI50 (A498): 2.68 µM (inactive)
GI50 (A549): 2.22 µM (inactive)
GI50 (ACHN): 5.46 µM (inactive)
GI50 (BT-549): 22.7 µM (inactive)
GI50 (CAKI-1): 3.32 µM (inactive)
GI50 (COLO 205): 2.46 µM (inactive)
GI50 (DU-145): 1.31 µM (inactive)
GI50 (EKVX): 3.48 µM (inactive)
GI50 (HCC 2998): 3.29 µM (inactive)
GI50 (HCT-116): 0.83 µM (active)
GI50 (HCT-15): 1.21 µM
GI50 (HL-60): 0.372 µM (active)
GI50 (HOP-62): 6.73 µM (inactive)
GI50 (HOP-92): 3.94 µM (inactive)
GI50 (HT-29): 1.47 µM (inactive)
GI50 (Hs-578T): 0.863 µM (active)
GI50 (IGROV-1): 1.3 µM (inactive)
GI50 (K562): 0.841 µM (active)
GI50 (KM12): 1.36 µM (inactive)
GI50 (LOX IMVI): 2.94 µM (inactive)
GI50 (M14): 1.37 µM (inactive)
GI50 (MCF7): 0.757 µM (active)
GI50 (MDA-MB-231): 2.54 µM (inactive)
GI50 (MDA-MB-435): 0.238 µM (active)
GI50 (MDA-N): 0.246 µM (active)
GI50 (MOLT-4): 0.977 µM (active)
GI50 (NCI-H226): 31.2 µM (inactive)
GI50 (NCI-H23): 1.56 µM (inactive)
GI50 (NCI-H460): 3.18 µM (inactive)
GI50 (NCI/ADR-RES): 2.04 µM (inactive)
GI50 (OVCAR-3): 1.02 µM (active)
GI50 (OVCAR-4): 5.18 µM (inactive)
GI50 (OVCAR-5): 4.39 µM (inactive)
GI50 (OVCAR-8): 4.06 µM (inactive)
GI50 (PC-3): 2.92 µM (inactive)
GI50 (RPMI-8226): 1.78 µM (inactive)
GI50 (RXF 393): 0.484 µM (active)
GI50 (SF-268): 2.96 µM (inactive)
GI50 (SF-295): 1.95 µM (inactive)
GI50 (SF-539): 1.15 µM (inactive)
GI50 (SK-MEL-28): 6.27 µM (inactive)
GI50 (SK-MEL-2): 10.8 µM (inactive)
GI50 (SK-MEL-5): 2.91 µM (inactive)
GI50 (SK-OV-3): 4.26 µM (inactive)
GI50 (SN12C): 1.31 µM (inactive)
GI50 (SNB-19): 1.01 µM (active)
GI50 (SNB-75): 1.42 µM (inactive)
GI50 (SR): 0.764 µM (active)
GI50 (SW-620): 1.04 µM (active)
GI50 (T47D): 6.76 µM (inactive)
GI50 (TK-10): 11.4 µM (inactive)
GI50 (U-251): 0.902 µM (active)
GI50 (UACC-257): 12.9 µM (inactive)
GI50 (UACC-62): 3.7 µM (inactive)
GI50 (UO-31): 4.18 µM (inactive)

Cc1cc(Oc2cnc(=O)[nH]c2)cs1
GI50 (786-0): > 100 µM (inactive)
GI50 (A498): > 100 µM (inactive)
GI50 (A549): > 100 µM (inactive)
GI50 (ACHN): > 100 µM (inactive)
GI50 (BT-549): > 100 µM (inactive)
GI50 (CAKI-1): > 100 µM (inactive)
GI50 (CCRF-CEM): > 100 µM (inactive)
GI50 (COLO 205): > 100 µM (inactive)
GI50 (DU-145): > 100 µM (inactive)
GI50 (EKVX): > 100 µM (inactive)
GI50 (HCC 2998): > 100 µM (inactive)
GI50 (HCT-116): > 100 µM (inactive)
GI50 (HCT-15): > 100 µM
GI50 (HL-60): > 100 µM (inactive)
GI50 (HOP-62): > 100 µM (inactive)
GI50 (HT-29): > 100 µM (inactive)
GI50 (Hs-578T): > 100 µM (inactive)
GI50 (IGROV-1): > 100 µM (inactive)
GI50 (K562): > 100 µM (inactive)
GI50 (KM12): > 100 µM (inactive)
GI50 (LOX IMVI): > 100 µM (inactive)
GI50 (M14): > 100 µM (inactive)
GI50 (MCF7): > 100 µM (inactive)
GI50 (MDA-MB-231): > 100 µM (inactive)
GI50 (MDA-MB-435): > 100 µM (inactive)
GI50 (MDA-N): > 100 µM (inactive)
GI50 (MOLT-4): > 100 µM (inactive)
GI50 (Malme-3M): > 100 µM (inactive)
GI50 (NCI-H226): > 100 µM (inactive)
GI50 (NCI-H23): > 100 µM (inactive)
GI50 (NCI-H460): > 100 µM (inactive)
GI50 (NCI-H522): > 100 µM (inactive)
GI50 (NCI/ADR-RES): > 100 µM (inactive)
GI50 (OVCAR-3): > 100 µM (inactive)
GI50 (OVCAR-5): > 100 µM (inactive)
GI50 (OVCAR-8): > 100 µM (inactive)
GI50 (PC-3): > 100 µM (inactive)
GI50 (RPMI-8226): > 100 µM (inactive)
GI50 (SF-268): > 100 µM (inactive)
GI50 (SF-295): > 100 µM (inactive)
GI50 (SF-539): > 100 µM (inactive)
GI50 (SK-MEL-28): > 100 µM (inactive)
GI50 (SK-MEL-2): > 100 µM (inactive)
GI50 (SK-MEL-5): > 100 µM (inactive)
GI50 (SK-OV-3): > 100 µM (inactive)
GI50 (SN12C): > 100 µM (inactive)
GI50 (SNB-19): > 100 µM (inactive)
GI50 (SNB-75): > 100 µM (inactive)
GI50 (SR): > 100 µM (inactive)
GI50 (SW-620): > 100 µM (inactive)
GI50 (T47D): > 100 µM (inactive)
GI50 (TK-10): > 100 µM (inactive)
GI50 (U-251): > 100 µM (inactive)
GI50 (UACC-257): > 100 µM (inactive)
GI50 (UACC-62): > 100 µM (inactive)
GI50 (UO-31): > 100 µM (inactive)

CC(=O)c1cccn1/C=C(\OC(=O)OC(C)(C)C)c1ccc[nH]1
GI50 (786-0): > 100 µM (inactive)
GI50 (A498): 34.8 µM (inactive)
GI50 (A549): 60 µM (inactive)
GI50 (ACHN): > 100 µM (inactive)
GI50 (BT-549): 60.7 µM (inactive)
GI50 (CAKI-1): 22 µM (inactive)
GI50 (CCRF-CEM): 39.8 µM (inactive)
GI50 (COLO 205): 89.7 µM (inactive)
GI50 (DU-145): 58.9 µM (inactive)
GI50 (EKVX): 25.5 µM (inactive)
GI50 (HCC 2998): > 100 µM (inactive)
GI50 (HCT-116): 41.3 µM (inactive)
GI50 (HCT-15): 55.5 µM
GI50 (HL-60): 31 µM (inactive)
GI50 (HOP-62): 77.3 µM (inactive)
GI50 (Hs-578T): > 100 µM (inactive)
GI50 (IGROV-1): 40.6 µM (inactive)
GI50 (K562): 59.6 µM (inactive)
GI50 (KM12): 46.3 µM (inactive)
GI50 (LOX IMVI): 62.4 µM (inactive)
GI50 (M14): 76.4 µM (inactive)
GI50 (MCF7): 76.4 µM (inactive)
GI50 (MDA-MB-231): 73.8 µM (inactive)
GI50 (MDA-MB-435): > 100 µM (inactive)
GI50 (MDA-N): 81.8 µM (inactive)
GI50 (MOLT-4): 48.2 µM (inactive)
GI50 (Malme-3M): > 100 µM (inactive)
GI50 (NCI-H226): 33.2 µM (inactive)
GI50 (NCI-H23): 69.8 µM (inactive)
GI50 (NCI-H460): > 100 µM (inactive)
GI50 (NCI-H522): 57 µM (inactive)
GI50 (NCI/ADR-RES): 50.2 µM (inactive)
GI50 (OVCAR-3): 46.6 µM (inactive)
GI50 (OVCAR-4): 42 µM (inactive)
GI50 (OVCAR-5): 51.2 µM (inactive)
GI50 (OVCAR-8): 99.5 µM (inactive)
GI50 (PC-3): 49.1 µM (inactive)
GI50 (RPMI-8226): 59 µM (inactive)
GI50 (RXF 393): 33.8 µM (inactive)
GI50 (SF-268): 77.3 µM (inactive)
GI50 (SF-295): 39.4 µM (inactive)
GI50 (SK-MEL-28): 96.6 µM (inactive)
GI50 (SK-MEL-2): > 100 µM (inactive)
GI50 (SK-MEL-5): 40.3 µM (inactive)
GI50 (SN12C): 96.8 µM (inactive)
GI50 (SNB-19): 46.7 µM (inactive)
GI50 (SNB-75): 8.24 µM (inactive)
GI50 (SR): 31 µM (inactive)
GI50 (SW-620): 83.9 µM (inactive)
GI50 (T47D): 33 µM (inactive)
GI50 (TK-10): > 100 µM (inactive)
GI50 (U-251): 64.4 µM (inactive)
GI50 (UACC-257): > 100 µM (inactive)
GI50 (UACC-62): 99.1 µM (inactive)
GI50 (UO-31): 36.9 µM (inactive)
